The values below come from PubChem BioAssay (NCI).

SMILES strings stand for the structures. Values joined by “and” are separate entries in the source; they are usually repeats but may differ in a detail not shown here. Identical values can stand only once.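 The compound was tested at five concentrations on cells cultured in 96-well plates, with a 48-hour exposure period. GI50 marks 50% less growth. TGI is the concentration that stops growth completely.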 Bounds are passed on as bounds.

Among the test systems are OVCAR-4 ovarian; COLO 205 colon; UACC-62 melanoma; CCRF-CEM leukemia; NCI-H23 lung; SNB-19 CNS; HCT-15 colon; 786-0 renal; SF-295 CNS; SR leukemia.
Common to all, as to test: NCI anticancer screen, dose series, 48 h

As for `COc1cc2c(/C=C3\C(=O)Nc4ccc(Br)cc43)c(Cl)n(C)c2cc1C`, the GI50 in the experiment on OVCAR-4 ovarian was 4120 nM; in the experiment with COLO 205 colon it was 1960 nM; in the experiment on UACC-62 melanoma, 0.618 µM; in the experiment on CCRF-CEM leukemia, 2940 nM; in the experiment on NCI-H23 lung it was 2780 nM; in the experiment on SNB-19 CNS, 2.57 µM. Further, the GI50 in the experiment on HCT-15 colon is 1920 nM; in the experiment with 786-0 renal it was 0.998 µM; with SF-295 CNS it was 0.327 µM; in the experiment with SR leukemia, 1420 nM. Moreover, the TGI in the experiment on OVCAR-4 ovarian turned out to be 24.8 µM; in the experiment with COLO 205 colon, 5.43 µM; in the experiment with UACC-62 melanoma it was 12.9 µM; in the experiment on CCRF-CEM leukemia, 23.2 µM; in the experiment with NCI-H23 lung, 13 µM; in the experiment with SNB-19 CNS, 48.8 µM. The TGI was found to be 8.06 µM with HCT-15 colon, 3.94 µM with 786-0 renal and 1.16 µM with SF-295 CNS.

As to `O=[N+]([O-])c1ccc2[nH]cc(-c3c4ccccc4cc4[nH]c5ccc([N+](=O)[O-])cc5c34)c2c1`, the GI50 in the experiment with OVCAR-4 ovarian was 1570 nM; with COLO 205 colon it was 2460 nM; in the experiment on UACC-62 melanoma it was 1.63 µM; in the experiment with CCRF-CEM leukemia it was 2380 nM; with NCI-H23 lung, 2590 nM; in the experiment with SNB-19 CNS it was 2.88 µM. For the same compound, the GI50 in the experiment with HCT-15 colon was 1880 nM; in the experiment on 786-0 renal, 1.94 µM; with SF-295 CNS, 1.63 µM; in the experiment on SR leukemia, 2860 nM. Moreover, the TGI in the experiment with OVCAR-4 ovarian turned out to be 3.02 µM; with COLO 205 colon, 7 µM; in the experiment on UACC-62 melanoma, 3.47 µM; with CCRF-CEM leukemia it was 6.71 µM; in the experiment on NCI-H23 lung it was 8.11 µM; with SNB-19 CNS, 9.13 µM. Further, the TGI is 4.49 µM with HCT-15 colon, 4.09 µM with 786-0 renal, 3.73 µM in the experiment with SF-295 CNS and greater than 100 µM with SR leukemia.

In the case of `O=C(OCCOCCOC(=O)c1c[nH]cc1-c1ccccc1)c1c[nH]cc1-c1ccccc1`, the TGI in the experiment on OVCAR-4 ovarian was 49.7 µM; with COLO 205 colon it was 35.6 µM; with UACC-62 melanoma, 31 µM; in the experiment on CCRF-CEM leukemia, greater than 100 µM; in the experiment on NCI-H23 lung, 33.7 µM; with SNB-19 CNS, 69.9 µM. The TGI in the experiment on HCT-15 colon was 38.5 µM; in the experiment on 786-0 renal, 73.1 µM; in the experiment on SF-295 CNS it was 35.7 µM; in the experiment on SR leukemia, 55.6 µM.

For the compound `CN(C)CCn1cc(-c2ccc3c(Nc4ccc(CC(=O)Nc5cccc(F)c5)cc4)ncnc3c2)cn1`, the GI50 in the experiment with OVCAR-4 ovarian is 1530 nM; in the experiment on COLO 205 colon, 55.9 nM; in the experiment with UACC-62 melanoma it was 6.4 µM; in the experiment on CCRF-CEM leukemia, 17.8 nM; in the experiment on NCI-H23 lung, 1870 nM; with SNB-19 CNS it was 1.34 µM. Moreover, the GI50 is 4440 nM in the experiment on HCT-15 colon, 1.42 µM in the experiment on 786-0 renal, 2.95 µM with SF-295 CNS and 1530 nM with SR leukemia. Besides, the TGI with OVCAR-4 ovarian is 3.09 µM; in the experiment on COLO 205 colon, 3.22 µM; with UACC-62 melanoma it was greater than 10 µM; in the experiment on CCRF-CEM leukemia, greater than 10 µM; in the experiment with NCI-H23 lung it was 4.98 µM; in the experiment with SNB-19 CNS, 5.39 µM. Further, the TGI with HCT-15 colon is greater than 10 µM; with 786-0 renal, 2.87 µM; with SF-295 CNS it was greater than 10 µM; with SR leukemia it was greater than 10 µM.

In the case of `Cn1cc(C(=O)C2CCCCC2)ccc1=O`, the TGI with OVCAR-4 ovarian, in the experiment on COLO 205 colon, with UACC-62 melanoma, in the experiment on CCRF-CEM leukemia, in the experiment with NCI-H23 lung and in the experiment on SNB-19 CNS was greater than 100 µM throughout. For the same compound, the TGI in the experiment on HCT-15 colon, in the experiment with 786-0 renal, in the experiment with SF-295 CNS and with SR leukemia was greater than 100 µM in each case.

As to `O=Cc1ccc(C(F)(F)F)cc1.[C-]#[O+].[C-]#[O+].[C-]#[O+].[Cr]`, the GI50 is 27100 nM with OVCAR-4 ovarian; 27400 nM with COLO 205 colon; 13.3 µM in the experiment on UACC-62 melanoma; 9870 nM with CCRF-CEM leukemia; 37100 nM with NCI-H23 lung; 26.7 µM with SNB-19 CNS. Further, the GI50 in the experiment on HCT-15 colon was 26100 nM; with 786-0 renal, 13.1 µM; with SF-295 CNS it was 38.1 µM; in the experiment with SR leukemia, 15100 nM. Moreover, the TGI with OVCAR-4 ovarian is greater than 100 µM; in the experiment with COLO 205 colon, greater than 100 µM; with UACC-62 melanoma, 37 µM; in the experiment with CCRF-CEM leukemia it was 65.1 µM; with NCI-H23 lung, greater than 100 µM; in the experiment with SNB-19 CNS, 89.6 µM. For the same compound, the TGI with HCT-15 colon was 82.7 µM; in the experiment on 786-0 renal it was 44.1 µM; in the experiment on SF-295 CNS, greater than 100 µM; in the experiment on SR leukemia it was 46.6 µM.

Turning to `NC(=O)NC(=O)CI`, the GI50 with OVCAR-4 ovarian is 1770 nM; in the experiment with COLO 205 colon it was 1910 nM; with UACC-62 melanoma it was 5.38 µM; in the experiment on CCRF-CEM leukemia, 757 nM; in the experiment on NCI-H23 lung, 5750 nM; in the experiment with SNB-19 CNS it was 34 µM. The GI50 in the experiment with HCT-15 colon is 1680 nM; with 786-0 renal, 4.7 µM; in the experiment on SF-295 CNS it was 23.9 µM; in the experiment on SR leukemia it was 2520 nM. For the same compound, the TGI was 4.08 µM in the experiment on OVCAR-4 ovarian; 3.73 µM with COLO 205 colon; 18.7 µM in the experiment with UACC-62 melanoma; 2.31 µM in the experiment with CCRF-CEM leukemia; 21 µM in the experiment with NCI-H23 lung; 97.7 µM in the experiment on SNB-19 CNS. In addition, the TGI in the experiment with HCT-15 colon was 3.55 µM; in the experiment with 786-0 renal, 13.5 µM; in the experiment with SF-295 CNS, greater than 57.7 µM; in the experiment with SR leukemia it was 7.69 µM.

On to `Cn1c(=O)c(F)c(Nc2ccc(I)cc2F)c2c(=O)n(C[C@@H](O)CO)cnc21`, for which the GI50 in the experiment with OVCAR-4 ovarian is 6330 nM and 1210 nM; in the experiment on COLO 205 colon, < 10 nM and 2.71 nM; in the experiment on UACC-62 melanoma it was < 0.01 µM and 0.00264 µM; in the experiment on NCI-H23 lung, 18.3 nM and 23.1 nM; with SNB-19 CNS, 4.73 µM; in the experiment with HCT-15 colon, 1900 nM and 873 nM. For the same compound, the GI50 in the experiment with 786-0 renal is 4.59 µM and 1.3 µM; in the experiment with SF-295 CNS, 14.1 µM and > 2.11 µM; in the experiment on SR leukemia, 5040 nM. For the same compound, the TGI with OVCAR-4 ovarian is greater than 100 µM; in the experiment on CCRF-CEM leukemia, 52 µM and > 7.18 µM; in the experiment with NCI-H23 lung, greater than 46.4 µM; in the experiment with SNB-19 CNS it was greater than 100 µM; in the experiment on HCT-15 colon, 43.2 µM and > 8.26 µM; with 786-0 renal, 21.4 µM and > 4.58 µM. Further, the TGI in the experiment with SF-295 CNS was greater than 78.3 µM; with SR leukemia it was 36.4 µM and > 10 µM.

For the compound `N#C/C(=C/N1CCN(C(=O)c2ccco2)C1=S)C(N)=O`, the GI50 in the experiment with OVCAR-4 ovarian is 18500 nM; in the experiment on COLO 205 colon, 24900 nM; in the experiment on UACC-62 melanoma, 14 µM; with CCRF-CEM leukemia, greater than 100000 nM; with NCI-H23 lung it was 21400 nM; in the experiment on SNB-19 CNS it was 36.4 µM. Moreover, the GI50 was 3820 nM in the experiment with HCT-15 colon, 18 µM with 786-0 renal, 32.1 µM in the experiment on SF-295 CNS and 3030 nM in the experiment on SR leukemia. Also, the TGI was 73.8 µM in the experiment with OVCAR-4 ovarian; greater than 100 µM with COLO 205 colon; 38.3 µM in the experiment with UACC-62 melanoma; greater than 100 µM in the experiment on CCRF-CEM leukemia; 44 µM with NCI-H23 lung; greater than 100 µM with SNB-19 CNS. In addition, the TGI in the experiment on HCT-15 colon was greater than 100 µM; in the experiment with 786-0 renal, 46.9 µM; in the experiment on SF-295 CNS, greater than 100 µM; in the experiment on SR leukemia it was greater than 100 µM.

As for `Cc1ccc(S(=O)(=O)N2CCCCC2CCO)cc1` (stereo unspecified), the TGI in the experiment on OVCAR-4 ovarian, with COLO 205 colon, in the experiment on UACC-62 melanoma, in the experiment on CCRF-CEM leukemia, in the experiment with NCI-H23 lung and with SNB-19 CNS was greater than 100 µM throughout. Besides, the TGI in the experiment on HCT-15 colon, in the experiment on 786-0 renal, with SF-295 CNS and in the experiment with SR leukemia was greater than 100 µM in each case.

`CCCCOC(=O)N[C@H]1CCc2cc(OC)c(OC)c(OC)c2-c2ccc(SC)c(=O)cc21`: the TGI with OVCAR-4 ovarian is greater than 96.5 µM; in the experiment with COLO 205 colon, less than 0.01 µM; in the experiment with UACC-62 melanoma it was 24.8 µM; with CCRF-CEM leukemia it was 35.8 µM; in the experiment with NCI-H23 lung it was 8.09 µM; with SNB-19 CNS, 73 µM. The TGI in the experiment with HCT-15 colon was greater than 15.8 µM; in the experiment on 786-0 renal, 25.5 µM; in the experiment on SF-295 CNS, less than 0.0361 µM; with SR leukemia, greater than 43 µM.

Take `O=C(CC1C(=O)Nc2ccccc2S1=O)Nc1cccc(Cl)c1` (stereo unspecified): the TGI was greater than 100 µM with OVCAR-4 ovarian; greater than 66.1 µM in the experiment on COLO 205 colon; greater than 76.1 µM with UACC-62 melanoma; greater than 57.6 µM in the experiment with CCRF-CEM leukemia; greater than 100 µM in the experiment with NCI-H23 lung; greater than 88.9 µM with SNB-19 CNS. Further, the TGI in the experiment on HCT-15 colon is greater than 100 µM; in the experiment with 786-0 renal, greater than 100 µM; in the experiment with SF-295 CNS, greater than 100 µM; with SR leukemia, 22.1 µM.

For the compound `C[C@H](NC(=O)OC1C2C=CC(O)C1CC2)c1ccccc1` (stereo partly specified), the TGI in the experiment with OVCAR-4 ovarian, in the experiment with COLO 205 colon, in the experiment with UACC-62 melanoma, in the experiment with CCRF-CEM leukemia, in the experiment on NCI-H23 lung and in the experiment with SNB-19 CNS was greater than 100 µM throughout. The TGI is 33.6 µM in the experiment with HCT-15 colon, greater than 100 µM in the experiment on 786-0 renal, greater than 100 µM with SF-295 CNS and 46.2 µM in the experiment with SR leukemia.

Turning to `CC(C)(C)NNc1c([N+](=O)[O-])cnn(-c2ccccc2)c1=O`, the TGI in the experiment on OVCAR-4 ovarian came to 6.61 µM; in the experiment on COLO 205 colon it was 12.6 µM; in the experiment with UACC-62 melanoma, 9.39 µM; with CCRF-CEM leukemia, 3.4 µM; in the experiment on NCI-H23 lung, 11.1 µM; in the experiment on SNB-19 CNS, 22.7 µM. Further, the TGI came to 10.1 µM in the experiment with HCT-15 colon, 13.4 µM in the experiment with 786-0 renal, 20.1 µM with SF-295 CNS and 4.67 µM in the experiment with SR leukemia.
